The values that follow come from US20210371413A1, “POLYCYCLIC AMIDES AS CYTOTOXIC AGENTS” (FEMTOGENIX LIMITED, priority 2018, published 2021).

Values after ≈ are worked out from the molar mass of the structure shown.

The term MIC denotes the least concentration at which growth counts as inhibited. Read a low MIC as inhibition by little substance.

Assay [1] deals with 5′-[…]-3′ (poly GC) DNA duplex. The assay is described as follows: FRET DNA melting, poly GC duplex. The following applies: FRET melting, FIG. 2 bottom panel (poly GC duplex). Type of assay: binding. Here is the method: FRET DNA melting studies were undertaken on 15 and 16 using two fluorescently labelled sequences. The sequences (FIG. 1) were designed to represent poly AT and poly GC sequences.
The short duplexes used in this FRET study are relatively unstable in the duplex form with a melting temperature below 30° C. so that, in the absence of ligand, a large part of the melting occurs below the starting temperature of the experiment. However, it can be observed that 15 stabilizes the duplex form, producing increases in melting temperature with ΔTm values of […] for 5′-AAAAAAAGAAAAAATIT-3′ (FIG. 2, top panel), and ˜25° C. (FIG. 2, bottom panel).
Oligonucleotides were obtained from ATDbio (Southampton, UK) in lyophilised form. […]
The reaction mixture was comprised of 4 μL of 250 mM phosphate buffer (final concentration of 50 mM), 4 μL flourophor and 4 μL quencher molecule of the appropriate oligonucleotide for a final concentration of 0.2 μM, 4 μL 5 M sodium chloride (final concentration of 1 M NaCl), and 4 μL of distilled H2O. […] This mixture was analysed without prior annealing.
Fluorescence melting profiles were measured using a Roche LightCycler using a total reaction volume of 20 μL. […] Annealing steps and melting steps were all recorded and changes in fluorescence were measured at 520 nm. […]

Assay [2] relates to DS3 DNA fragment. The assay is described as follows: DNA footprinting, DS3 DNA fragment. The class given is binding. As to conditions: DS3 DNA sequence. The protocol: The DNA sequence selectivity profile of the molecules was investigated using a modification of the previously established DNA footprinting assay. Following an overnight incubation of the ligand-DNA complexes, the mixture was mixed with strand separation buffer containing 10 mM EDTA, 10 mM NaOH, 0.1% bromophenol blue, 80% formamide and incubated at 100° C. for 3 min. The mixture was then immediately cooled on ice and run on an 8% denaturing gel.
The preparation of the DS3 DNA fragment (FIG. 5) and the “D” DNA fragment (FIG. 6) has been previously described. Briefly, the sequence which had been cloned into the BamHI site of pUC18 was obtained by cutting with HindIII and EcoRI. Radiolabelled DNA fragments were prepared by filling in the 3′-end of the HindIII site with [α-^32P]dATP using Klenow DNA polymerase (exo-).
The radiolabelled DNA fragment was separated from the remainder of the plasmid DNA on a 6% non-denaturing polyacrylamide gel. The gel (20 cm long, 0.3 mm thick) was run at 400 V in 1×TBE running buffer for about 1-2 h, until the bromophenol blue had run most of the way down the gel. The glass plates were separated and the position of the labelled DNA fragment was established by short (1 min) exposure to an X-ray film. The relevant band was then cut from the gel and the radiolabelled DNA eluted by adding 300 μL 10 mM Tris-HCl, pH 7.5 containing 0.1 mM EDTA and gently agitating overnight at room temperature. The eluted DNA was finally precipitated with ethanol and re-suspended in a suitable volume of 10 mM Tris-HCl, pH 7.5 containing 0.1 mM EDTA buffer so as to give at least 10 counts per second/μL on a hand-held Geiger counter. […]
Footprinting reactions were performed as previously described using the DNA fragments DS3, which contains tracts of AT/GC bases; and using the “D” DNA fragments which represents a random DNA sequence. […] After gel purification, the radiolabelled DNA was dissolved in 10 mM Tris-HCl pH 7.5 containing 0.1 mM EDTA, at a concentration of about 10 c.p.s per μL as determined on a hand held Geiger counter. […]

The test system of assay [3] is Klebsiella pneumoniae KP4631. The assay is described as follows: MIC assay, Klebsiella pneumoniae KP4631. Type of assay: cell-based. As to conditions: Klebsiella pneumoniae, KP4631. Here is the method: (§1) The antimicrobial activity of a selection of compounds were evaluated in a Gram-negative, Gram-positive and multi-resistant bacteria using the standard minimum inhibitory concentration (MIC) assay for an overnight (16-20 hour) incubation period. Commercially marketed antibiotics (Table 3) were used as positive controls during the study.
(§2) Mueller-Hinton broth (MH Broth) (Sigma-Aldrich; Millipore, cat. no. 70192) and Mueller-Hinton agar (MHA) (Sigma-Aldrich; Millipore, cat. no. 70191) were prepared as per manufacturer's instructions and sterilized by autoclaving. Approximately 20 mL of MHA was poured onto 15×100 mm petri dishes and allowed to set. Agar plates were then stored in plastic bags in an inverted position at 4° C.
(§3) Bacterial strains were provided in the form of a glycerol stock, stored at −80° C. For the purpose of preparation of bacterial suspension, appropriate strains were removed from −80° C. storage onto dry ice and not allowed to freeze-thaw.
(§4) Stock solutions of 16, 45 and 73 were provided in DMSO at 1.28 mg/mL concentration. From this stock solution, working solutions of the desired concentration were prepared by diluting with MHB.
(§5) MIC assay methodology was adapted from previously published work.
(§6) Bacterial isolate to be tested was streaked onto a nutrient-rich MH agar plate and incubated overnight at 37° C. in order to obtain single colonies.
(§7) After overnight incubation, single colonies with the same morphological appearance were chosen from the agar plate. These were touched using a sterile loop and transferred into a tube containing 10 mL of a MH broth. They were then mixed using vortex mixer and incubated at 35-37° C. in a shaker at 200 r.p.m. overnight.
(§8) Determination of OD600 and cfu/mL count OD600 (the optical density of a sample measured at a wavelength of 600 nm) of the overnight culture was measured. Because of the loss of linearity at OD600 values […], it was necessary to dilute the sample until the OD600 value was below 1.0. For all tested bacteria, a dilution of 1:10 was appropriate (100 μL in 900 μL broth).
(§9) The overnight culture was then diluted 1:100 using sterile tubes and MH broth (dilution: 10^−2). Serial dilution was then performed six times until dilution of 10^−8 was reached. 100 μL of dilutions 10^−7 and 10^−8 were plated onto MH agar plates in triplicate using a sterile cell spreader and incubated overnight at 37° C.
(§10) After overnight incubation, colonies on plates were counted and cfu per mL calculated. The following formula was applied: […]
(§11) After overnight incubation, the OD600 was measured and the overnight culture was diluted accordingly to obtain 1×10^8 cfu/mL. […]
(§12) The 96-well plates were read using a SpectraMax plate reader at an absorbance of 600 nm. […]

Assay [4] relates to E. coli K12. The assay is described as follows: MIC assay, E. coli K12. The class given is cell-based. As to conditions: Escherichia coli, K12, E. coli K12 (Gram-negative), overnight (16-20 hour) incubation. The protocol: as §1, §2, §3, §4, §5, §6, §7, §8, §9, §10
For the generation of overnight cultures to be used for preparation of the bacterial suspension for MIC tests, a single colony of bacteria was selected using a sterile loop and a sterile tube with MH broth was inoculated followed by overnight incubation at […] in a shaker set to 200 r.p.m.
After overnight incubation, the OD600 was measured and the overnight culture was diluted accordingly to obtain 1×10^8 cfu/mL.
Free payload dilutions were prepared as per Table 4.
96-well sterile microtiter plates were used for MIC assay. The plate was filled with the respective free payload or positive control antibiotic concentrations in triplicate. 100 μL of broth was pipetted in the sterility control well (SC, column 12) and 50 μL in the growth control well (GC, column 11).
1×10^8 cfu/mL bacterial suspension was diluted 1:100 and 50 μL added to each well apart from SC. […]
as §12

In assay [5] the test system is REH (ALL). The assay is described as follows: In vitro cytotoxicity, MTT assay, REH. As to conditions: REH (ALL), MTT, 72 hour incubation; read-out: Cytotoxicity. Type of assay: cell-based. The protocol:
(§13) The in vitro cytotoxicity of a selection of compounds were evaluated in a panel of cell lines using the standard MTT assay for a 72 hour incubation period (Table 2). Free payloads produced cytotoxicities in the nanomolar range.
(§14) Tumor cell lines were maintained in RPMI1640 medium supplemented with 10% heat-inactivated fetal bovine serum, 2 mM L-glutamine and 1 mM sodium pyruvate. 1800 cells per well were seeded in a volume of 180 μl in a 96-well flat bottom polystyrene plate. The cells were allowed to adhere overnight at 37° C. in a CO2 incubator. Ligands were initially formulated in DMSO, and stocks stored at −80° C. They were then further formulated at lox concentration in RPMI1640 medium. 20 ul of diluted samples were added into each treatment well. On each plate, blank wells with no cells, and untreated wells containing cells, were included. Plates were then cultured at 37° C. in a CO2 incubator for 72 hrs. Cytotoxicity was evaluated using a tetrazolium salt-based assay, the MTT assay. After 72 hours, the supernatant was removed from each well and 200 μl of a sterile filtered 500 μg/ml MTT solution in water added to each well. The plates were then incubated at 37° C. in a CO2 incubator for 4 hrs. The supernatant was then removed and the formazan crystals formed solubilized by adding 150 μl of DMSO to each well. The plate was then read on a plate reader at 540 nm, and percentage cell survival calculated as follows: ((mean absorbance treated wells at concentration x−mean absorbance blank wells)+(mean absorbance untreated wells at concentration x−mean absorbance blank wells))×100. Data were plotted as concentration in nM vs. % cell survival in Microsoft Excel, and IC50 values (concentration where cell survival is reduced by a half) were determined from the graph.

Assay [6] has as its system A431 (Skin). The assay is described as follows: In vitro cytotoxicity, MTT assay, A431. Type of assay: cell-based. As to conditions: Homo sapiens, A-431; A431 (Skin), MTT, 72 hour incubation; read-out: Cytotoxicity. The protocol:
as §13, §14

The test system of assay [7] is U138-MG (Glioblastoma). The assay is described as follows: In vitro cytotoxicity, MTT assay, U138-MG. The class given is cell-based. As to conditions: Homo sapiens; U138-MG (Glioblastoma), MTT, 72 hour incubation; read-out: Cytotoxicity. The protocol: as §13, §14
A general note: Tetrazolium assays rely on reduction of a dye to a coloured formazan, in cell work by metabolically active cells.

For assay [8], the system named is EMRSA 16. The assay is described as follows: MIC assay, EMRSA 16. The following applies: Staphylococcus aureus. The class given is cell-based. The protocol: as §1, §2, §3, §4, §5, §6, §7, §8, §9, §10, §11, §12

With `COc1cc2c(cc1OCCCC(=O)Nc1cc(C(=O)Nc3ccc(-c4cc(C(=O)Nc5ccc(N)cc5)n(C)c4)cc3)n(C)c1)N=C[C@@H]1CCCCN1C2=O` [Compound 15, (S)—N-(4-aminophenyl)-4-(4-(4-(4-((2-methoxy-12-oxo-6a,7,8,9,10,12-hexahydrobenzo[e]pyrido[1,2-a][1,4]diazepin-3-yl)oxy)butan-amido)-1-methyl-1H-pyrrole-2-carboxamido)phenyl)-1-methyl-1H-pyrrole-2-carboxamide], the “ΔTm (increase in melting temperature)” value in assay [1] was about 25 °C. Besides, in assay [2], the “DNA binding pattern (footprint)” value is given as “bind to tracts of DNA where a GC base is present”.
On to `COc1cc2c(cc1OCCCC(=O)Nc1cc(C(=O)Nc3ccc(-c4cc(C(=O)Nc5ccncc5)n(C)c4)cc3)n(C)c1)NC[C@@H]1CCCCN1C2=O` [Compound 73, (S)-4-(4-((2-Methoxy-12-oxo-5,6,6a,7,8,9,10,12-octahydrobenzo[e]pyrido-[1,2-a][1,4]diazepin-3-yl)oxy)butanamido)-1-methyl-N-(4-(1-methyl-5-(pyridin-4-ylcarbamoyl)-1H-pyrrol-3-yl)phenyl)-1H-pyrrole-2-carboxamide], for which the MIC in assay [3] was 4 to 8 µg/mL (≈ 5.37 to 10.7 µM); in assay [4] it was 2 µg/mL (≈ 2.69 µM); in assay [8] it was 0.5 µg/mL (≈ 0.671 µM). Moreover, the results for the IC50 in assay [5], in assay [6] and in assay [7] were 37.5 nM, 144 nM and 301 nM, respectively.
